Laboratory results from patent publication US9918986B2, “Methods and compounds for preventing osteoarthritis” (UNIVERSITY COLLEGE CARDIFF CONSULTANTS LIMITED, priority 2013, dated 2018).

Tests used:
AIA rats [1] = test: Knee swelling in AIA rats; format: in vivo, rat
Protocol: Diameters of the inflamed (right) and non-inflamed (left) knees of all the rats were measured using a Mitutoyo® digital calliper (RS Components Ltd, Northants, UK) to quantify swelling. […] Three readings were taken for each knee and the difference between the means of the inflamed and non-inflamed knee gave a value in millimeters of knee swelling.

IL-6 mRNA = IL-6 mRNA expression in AIA rat joint tissues (QRT-PCR); format: in vivo; settings: day 21
AIA rats [2] = test: Histological disease assessment in AIA rats (synovial inflammation, joint degradation); format: in vivo, rat; settings: day 21
Protocol: On day 21, 9 AIA, 9 NBQX and 3 control rats were culled and their knees dissected intact and fixed in 10% neutral buffered formalin solution (Sigma) for 2 days. Knees were decalcified in 10% EDTA (Fisher Scientific, Loughborough, UK) at 4° C., embedded in paraffin wax, sectioned (6 μm) in the coronal plane and stained with haematoxylin and eosin for synovial inflammation or toluidine blue/safranin-O for cartilage and bone scoring or retained for immunohistochemical analysis. Synovial inflammation and joint degradation were scored by two independent observers blinded to treatment group. An established scoring system was used to score synovial inflammation (3). Briefly, 3 parameters were scored: synovial hyperplasia (pannus formation) (0-3), synovial infiltrate (0-5) and synovial exudate (0-3), to give a maximum score of 11 per joint. Joint degradation was scored using a modified Mankin score (Table 1) consisting of: cartilage surface integrity (0-6), chondrocyte appearance (0-2), proteoglycan loss (0-4), tidemark integrity (0-2) and bone changes (0-3) to give a maximum score of 17 per joint quadrant (medial and lateral femoral condyles (MFC and LFC respectively) and medial and lateral tibial plateaux (MTP and LTP respectively)) totaling to a maximum of 68 per knee. In each knee, two representative sections ˜500 μm apart were scored for joint degradation.

AIA rats [3] = test: Macroscopic knee analysis (X-ray, MRI) in AIA rats; format: in vivo, rat; settings: day 21
Excerpt: Prior to decalcification, whole rat knees were examined by radiography and MRI. Radiographs of both the inflamed and non-inflamed knees of 9 AIA, 9 NBQX and 3 control rats were obtained using a Kodak FX Pro in-vivo Imaging System (Advanced Molecular Vision, Grantham, UK), and the images analysed using Kodak Molecular Imaging software version 5 with the following parameters: 30 second exposure time at 35 kV, 4.96 F-stop, 71.4 mm FOV, 9.8 mm focal plane.
Both the inflamed and non-inflamed knee joints of 6 AIA and 6 NBQX rats were imaged using a high spatial resolution MRI scanning protocol at the Experimental MRI Centre (EMRIC, School of Biosciences, Cardiff University). Each pair of knees was embedded in 1% agarose (Promega) inside a 50 ml falcon tube prior to scanning. MRI was performed using a Bruker Biospin Advance 9.4T ([…]) MRI system equipped with a transmit-receive quadrature coil. The scanning acquisition parameters were as follows: echo time […], repetition time 24 msec, field of view […]; matrix 640×280×280; and flip angle 180°. Images were subsequently viewed and analysed in ParaVision 5.1 (Bruker) and Analyze 10.0 software Mayo Biomedical Imaging Resource, Rochester, Minn., USA).

Cathepsin K mRNA = test: Bone phenotype mRNA expression in AIA rat knees; format: in vivo; settings: day 21
MNX rats [4] = test: Knee swelling in meniscal transection (MNX) rats; format: in vivo, rat
Protocol: (§1) We have established the meniscal transection (MNX) rat model of osteoarthritis. Surgery resection was performed wherein cutting through and removing part of the medial collateral ligament and then transecting the medial meniscus was performed under Home Office License. Surgery was performed under anaesthesia. Animals were then allowed to recover from surgery.
(§2) Using the MNX model, we tested the effects of NBQX injected directly into the knee joint. There were 5 groups of male Sprague-Dawley rats, 3 animals per group as follows: • MNX+sterile H2O (vehicle control) • MNX+2.5 mM NBQX • MNX+12.5 mM NBQX • MNX+25 mM NBQX • Naïve
(§3) NBQX treated rats received two intra-articular injections, the first immediately after MNX surgery and the second 7 days later. A single dose of Temgesic was also given sub-cutaneously to relieve pain following surgery. […] Vehicle control rats received injections of sterile H2O delivered in the same way at the same times. Over 21 days, weight, knee swelling (digital calliper) and incapacitance (Linton incapacitance meter) were measured on days 0, 1, 2, 3, 7, 8, 10, 14 and 21. The Linton incapacitance meter measures the weight exerted on each back leg whilst the rat is stationary in a clear Perspex box. The difference in weight bearing can then be calculated between the left and right leg. All rats were euthanized on day 21 and the knee joints fixed in formalin for histology.

MNX rats [5] = test: Incapacitance testing in MNX rats; format: in vivo, rat; settings: day 8
Protocol: as §1, §2, §3

Body weight in MNX rats = format: in vivo, rat; settings: all rats; over 21 days
Protocol: as §3

ligament ruptured mice = test: Knee swelling in non-invasive ligament rupture mouse model; format: in vivo; settings: 20 mM intra-articular
Protocol: We have established a non-invasive mouse model of post-traumatic knee joint degeneration due to ligament rupture.
Using custom built cups to hold the knee in flexion, loads (12N, 4 Hz, sine wave; ElectroForce® 3200, BOSE, USA) were applied to the right knees of 12-week-old C57Bl6 mice (n=10). […] Left knees served as unloaded controls. Immediately following ligament rupture, mice were given an intra-articular injection of 20 mM NBQX in to the right knee, whilst the control mice received an intra-articular injection of sterile H2O (vehicle control). A single dose of Temgesic was also given sub-cutaneously to relieve pain for up to 12 hours following loading.
Lameness scores were carried out every day for the first week and then every few days the following weeks to assess the welfare of the animals and the potential need for pain relief. Knee swelling was measured using digital callipers on days 0, 1, 2, 3, 7, 16 and 21. All mice were euthanized on day 21 and the knee joints fixed in formalin for histology.

[6] = Body weight in ligament rupture mouse model; format: in vivo; settings: all mice; over 21 days
Protocol: Using our non-invasive ligament rupture model, following trauma mice were given an intra-articular injection of 20 mM NBQX in the right knee. The left knee served as unloaded controls. Sterile water injections were performed in some mice to act as vehicle control. Knee swelling was measured using digital callipers on days 0, 1, 2, 3, 7, 16 and 21. […] Lameness scores were not severe enough to warrant extra doses of pain relief.

AMPA receptor = settings: cited from earlier work
Kainate receptor = settings: cited from earlier work
human RA FLS = settings: cited from earlier work
RA FLS = settings: cited from earlier work
AIA rats [7] = test: Footprint analysis in AIA rats
Protocol: (§4) For AIA, after a 7 day settling in period, animals received a subcutaneous injection of methylated bovine serum albumin (mBSA; 0.5 mg/ml; Sigma, Poole, UK) emulsified with an equal volume of Freund's complete adjuvant (CFA; 0.25 mg Mycobacterium tuberculosis: Sigma) into the right flank. A second subcutaneous injection of the emulsion was administered in the left flank 7 days later. Fourteen days following the second injection (day 0), an intra-articular injection of mBSA (0.5 mg in 50 μl saline) was administered into the right knee of 15 rats to serve as the AIA group. Another 15 rats received an intra-articular injection of 0.5 mg mBSA mixed with 2.5 mM NBQX (Tocris, Bristol, UK) in 50 μl saline, into the right knee. These rats served as the NBQX treatment group. […] Six control rats received no subcutaneous or intra-articular injections.
Hindlimb walking patterns were evaluated by footprint analysis on days 0, 1, 2, 3, 4, 7, 9, 14 and 21 as previously described (4). […] Three sets of at least two stepping cycles per side (six sequential steps) were performed for each rat per experimental day. Three parameters were measured: limb rotation (angle between a line through the centre of the foot pad parallel to the walking direction and a line through the third digit), stride length (distance between feet of the same side) and stance width (distance between feet of the right and left stepping cycle).

AIA rats [8] = test: KA1/AMPAR2 immunohistochemistry and TRAP staining in AIA rats; settings: day 21
Protocol: as §4
GluRs and transporters were localised in sequential paraffin knee sections (9 AIA, 9 NBQX and 6 control knees) using antibodies to kainate (anti-KA1, 1:400 dilution), AMPA receptor-2 (anti-ionotropic glutamate receptor-2, 1:100, both Abcam, Cambridge, UK), GLAST (GLAST11-S, 1:100) and EAAC1 (EAAC11-A, 1:200, both Alpha Diagnostic International, Texas, USA). AMPAR2 was also localised in 6 MNX and 6 naïve rats. Sections, processed as for histology, were deparaffinised and rehydrated prior to antigen retrieval using 1 mg/mitrypsin (Sigma) for 20 minutes at 37° C. Endogenous peroxidase activity was blocked with 0.3% hydrogen peroxide (Sigma) for 30 minutes followed by 3 washes in 1×TBS/0.1% tween for 15 minutes each. Sections were treated with 10% normal blocking serum (Sigma) for 1 hour prior to overnight incubation at 4° C. with primary antibody, followed by 3 washes in 1×TBS/0.1% tween. […] ABC horseradish peroxidase kit following the manufacturer's instructions (Vector Laboratories, Peterborough, UK). Sections were developed using nickel enhanced diaminobenzidine (DAB) (Vector Laboratories), counterstained in Mayer's haematoxylin (Fisher Scientific), rinsed in tap water, dehydrated, cleared in xylene and mounted. […]

NS(=O)(=O)c1cccc2c1c([N+](=O)[O-])cc1[nH]c(=O)c(=O)[nH]c12 [NBQX, 2,3-dihydroxy-6-nitro-7-sulfamoyl-benzo[f]quinoxaline-2,3-dione]
mean knee swelling (AIA rats [1]; day 1, 2.5 mM intra-articular, right knee): 2.95 mm | reduction in peak knee swelling (AIA rats [1]; day 1, vs AIA rats, 2.5 mM intra-articular): 33% | knee swelling vs AIA rats (AIA rats [1]; every time point throughout 21 days, P<0.001): significant reduction | IL-6 relative expression levels in meniscus vs AIA rats (IL-6 mRNA; inflamed knee, P<0.05): significantly lower | IL-6 relative expression levels in meniscus vs AIA rats (IL-6 mRNA; left non-inflamed knee): not significant | synovial hyperplasia, exudate, infiltrate and articular surface degradation vs AIA rats (AIA rats [2]): significantly less severe | average joint degeneration severity score vs AIA rats (AIA rats [2]; P<0.001): significantly reduced | bone changes score vs AIA (AIA rats [2]; P<0.001): largest difference | synovial inflammation score vs AIA rats (AIA rats [2]; P<0.001): significantly lower | joint degradation in the MFC vs AIA rats (AIA rats [2]; P<0.01): significantly less joint degradation | proteoglycan loss score vs AIA (AIA rats [2]; P<0.01): significantly lowered | tidemark integrity score vs AIA (AIA rats [2]; P<0.01): significantly lowered | chondrocyte appearance score vs AIA (AIA rats [2]; P<0.05): significantly lowered | joint degradation in the LFC vs AIA rats (AIA rats [2]; P<0.05): significantly less joint degradation | joint erosion in MRI (AIA rats [3]): greatly reduced | joint erosions in X-rays (AIA rats [3]): Fewer joint erosions | synovial inflammation in MRI (AIA rats [3]): greatly reduced | cathepsin K mRNA expression, inflamed knees vs AIA inflamed knees (Cathepsin K mRNA): significant reduction | knee swelling of vehicle control MNX rats compared to NBQX treated MNX rats (MNX rats [4]; day 8, 25 mM intra-articular, P<0.05): significantly greater knee swelling | knee swelling of vehicle control MNX rats compared to NBQX treated MNX rats (MNX rats [4]; day 14, 2.5 mM intra-articular, P<0.01): significantly greater knee swelling | knee swelling of vehicle control MNX rats compared to NBQX treated MNX rats (MNX rats [4]; day 14, 12.5 mM intra-articular, P<0.05): significantly greater knee swelling | difference in weight bearing left/right leg of vehicle control MNX rats compared to NBQX treated rats (MNX rats [5]; 2.5 mM, P<0.01): significantly greater difference in weight bearing | difference in weight bearing left/right leg of vehicle control MNX rats compared to NBQX treated rats (MNX rats [5]; 12.5 mM, P<0.05): significantly greater difference in weight bearing | difference in weight bearing left/right leg of vehicle control MNX rats compared to NBQX treated rats (MNX rats [5]; 25 mM, P<0.01): significantly greater difference in weight bearing | weight (Body weight in MNX rats): consistently put on weight | knee swelling vs vehicle controls (ligament ruptured mice; day 7, P<0.05): significantly less knee swelling | knee swelling vs vehicle controls (ligament ruptured mice; day 21, P<0.001): significantly less knee swelling | knee swelling compared to day 0 measurements (ligament ruptured mice; from day 2): no significant difference | weight [6]: consistently put on weight | AMPA receptor antagonist (AMPA receptor): Yes | Kainate receptor antagonist (Kainate receptor): Yes | MMP-2 expression by FLS (human RA FLS): did not affect | inhibition of IL-6 release increased by high glutamate concentrations (RA FLS): inhibited | stance width vs control rats (AIA rats [7]; P<0.05): significantly greater | stride length vs control rats (AIA rats [7]; P<0.05): significantly shorter | stride length (AIA rats [7]; by day 14): returned to normal | stance width (AIA rats [7]; by day 21): normal | weight bearing (footprints) (AIA rats [7]; days 1 and 2): able to weight bear | degree of foot rotation vs control rats (AIA rats [7]; right limb, P<0.05): significantly greater | GluR positive cells (AIA rats [8]): apparent reduction | TRAP positive osteoclasts vs AIA (AIA rats [8]): less abundant | extent of bone remodeling (AIA rats [8]): reduced
